According to patent US5672585A, “Method and composition for treating thrombosis” (priority 1995, dated 1997):
pIC50: −log10 of the molar value. Where two headings read alike, the source gives them in different places. Where no end group is shown, it is not given here. [ ]: non-standard residue; d: D form. The star is where a group is joined. Pmc = Cc1c(C)c(S(=O)(=O)*)c(C)c2c1OC(C)(C)CC2; Pen = CC(C)(S)[C@H](N)C(=O)O

Assays:
platelets [1] = test: ADP-stimulated platelet aggregation in platelet-rich plasma (Table I); conditions: read-out: ADP-Stimulated Aggregation; ADP 10 μm, citrated platelet-rich plasma, 37° C.; * concentrations unconfirmed by amino acid composition analysis
Experimental: (§4) All aggregation studies were performed at 37° C. with a constantly stirred suspension of 3×10^8 platelets/ml. (Platelet count was determined with the aid of a hemacytometer.) Peptides and stimulants were added to these suspensions in 1% dilutions. The PRP and gel-filtered platelets were used within three hours from the time of blood collection.

canine platelets = test: Canine platelet aggregation in vitro (ADP, arachidonic acid, collagen); type: cell-based, dog; conditions: stimulated by 10 μm ADP, […] arachidonic acid or 9.6 micrograms/ml collagen
[2] = biological target: T1, Fibronectin receptor (Fn-R) (Homo sapiens, UniProt P05556+P08648); test: FnR binding, competitive ELISA (Table I); conditions: purified receptor, * concentrations unconfirmed by amino acid composition analysis
T1 construct: Fibronectin receptor (Fn-R) was similarly purified from (100 mM) octyl glucoside-extracted human placenta; from tissue; host or cells: human placenta
Experimental: Peptide binding to purified Fn-R was determined by using a competitive enzyme-linked immunosorbent assay (ELISA) in which fibronectin is immobilized and the binding of solubilized Fn-R and the binding of solubilized FN-R, in the presence of various concentrations of peptide analogue, is detected with a polyclonal anti-Fn-R antibody followed by a labelled anti-rabbit IgG conjugate.
Microtiter plates were coated with 110 μl of human fibronectin (at 2 μg/ml) in TBS. The plates were washed three times with TBS that contained 0.05% Tween 20. 50 microliters of receptor in TBS containing 20 mM octylglucoside and 2 mM NmCl2 was added to each well. 50 microliters of peptide in the same buffer was then added in 10-fold serial dilutions. The plates were incubated for three hours at room temperature, washed with 200 μl of the above TBS-Tween buffer. 100 μl of affinity-purified rabbit anti-human fibronectin receptor antibody was added to the wells and the plates were incubated for an additional two hours, washed twice with TBS-Tween and then distilled water. Affinity-purified goat anti-rabbit IgG conjugated to horseradish peroxidase (100 μl) was then added to each well. Bonding reactions were incubated for 16 hours at room temperature. The following day, the plates were washed twice with TBS-Tween and then distilled water. […]
IC50 s for FnR were determined by ELISA (Example III).

[3] = biological target: vitronectin receptor (Vn-R); test: VnR binding, ELISA or liposome attachment assay (Table I); parameters: species or system human; conditions: purified receptor
Experimental: Receptor and ligand purifications were performed according to the methods in this Example or those in Examaple XI.C. Receptors were purified according to the procedures of Pytela et al. (Methods Enzymol. 144:475 (1987)), incorporated herein by reference. […] Except where stated, all procedures were carried out at 4° C. The peptide column was washed with three volumes of Tris-buffered saline (TBS) containing 1 mM Ca^2+ and 25 mM OG and then with TBS containing 1 mM Ca^2+ and 25 mM octyl thioglucoside (OTG) at room temperature. […] Finally, Ca^2+ and Mg^+2 were added to eluted fractions to achieve final concentrations of 1 mM for both ions.
This assay was performed with minor modifications, according to the method of Pytela et al., Methods Enzymol. 144:475 (1987), incorporated herein by reference. Briefly, 1:4 mixture of labelled and unlabelled phosphatidylcholine (PC) liposomes was dissolved under nitrogen and diluted with an equal volume of purified receptor (purified as described in Example II) to achieve a fixed predetermined receptor-liposome concentration ratio. This mixture was then dialyzed overnight at 4° C. in phosphate buffered saline (PBS) containing 1 mM Ca^2+. An aliquot of the dialyzed sample was counted to assess radioactive content; the receptor-liposome mixture was then diluted to obtain a set radioactivity per unit volume.
Microtiter plates were coated with 10 μg of vitronectin. Non-specific sites were blocked for 2 hours at 37° C. in PBS containing 5 mg/ml BSA and 1 mM each of CaCl2 and MgCl2. The plates were then rinsed twice with PBS containing 1 mM Ca^+2 and Mg^+2, and 100 μl of the liposome-receptor mixture was added to each well. If necessary, peptides were added before this step in a 1-10% dilution. The plates were then incubated at 4° C. for 24 hours. The following day, the liquid in each well was aspirated and the plates were washed twice with PBS containing 1 mM Ca^+2 and Mg^+2. Finally, 100 μl of 2% SDS was added, the plates were shaken for 10-15 minutes, and the supernatants were collected, vortexed, and subjected to liquid scintillation counting. This procedure typically yielded ca. 1000 total and 100 non-specific counts per well.
In parallel studies with the platelet aggregation experiments (described in Example V), the apparent affinities of peptides for GP IIbIIa, fibronectin and vitronectin receptors were determined. Receptor-binding assays (as described in Examples III and IV) with purified receptors, were used to assess the abilities of the peptides to displace the binding of receptors to their receptor-specific ligands.
(§5) Those for VnR and GP IIb/IIIa were determined either by ELISA or liposome attachment assay (Example IV).

platelets [4] = type: cell-based; conditions: for platelet aggregation potency relative to analogue 3: more potent than analogue 3; for increase in platelet aggregation potency relative to analogue 5: substitution of Leu at position 3
Experimental: (§1) Platelet aggregation was assessed using the method of Born, Nature 194:927-929 (1962), incorporated herein by reference. Briefly, the change in light transmission was measured through a stirred suspension of platelets in an aggregometer (Model 400 VS, Chrono-Log, Hayertown, Pa., USA). […] In studies using thrombin, the PRP was gel-filtered on Sepharose 2B in divalent ion-free Tyrode's solution containing 2% BSA. For all studies, the reference standard was platelet-poor plasma, which was obtained by centrifuging PRP at 1000×g for 5 min.
(§2) All aggregation studies were performed at 37° C. with a constantly stirred suspension of 3×10^8 platelets/mL. (Platelet count was determined with the aid of a hemacytometer.) Peptides and stimulants were added to these suspensions in 1% dilutions. The PRP and gel-filtered platelets were used within three hours from the time of blood collection.
The peptides described in this Example were synthesized according to the methods of Examples I and XI. Selectivity and potency were measured according to the methods of Examples II through XI. The peptide identification numbers used in this Example are consistent and relevant to this Example only. Some of the peptides are identified by other nomenclature elsewhere in this document.

platelets [5] = test: Thrombin-stimulated platelet aggregation (Table I); conditions: read-out: Thrombin Stimulated Aggregation; thrombin 2 U/ml, gel-filtered platelets, 37° C.
Experimental: as §4

platelets [6] = test: Ex vivo inhibition of platelet aggregation (Table IV); type: in vivo, dog; conditions: for ex vivo inhibition of platelet aggregation (%): dose as listed per peptide in Table IV; for ex vivo platelet aggregation: doses of Table IV
Experimental: as §1, with “Platelet aggregation assays were performed following the methods of this Example or those of Example IX.G. Platelet” for “Platelet”, “(Nature” for “Nature”, “(1962)),” for “(1962),”
as §2, with “platelets/ml.” for “platelets/mL.”
Peptide anti-aggregation potencies were determined from dose-responsive curves for the inhibition of the maximum aggregation responses stimulated by physiologic doses of ADP (10 μm) and thrombin (2 U/ml).
Using the method described in Example V to measure ex vivo inhibition of platelet aggregation and the method described in Example VII to measure bleeding, four additional peptides were tested. These peptides included 11J, 11Q, 11K and 11V.

GP IIb/IIIa = GP IIb/IIIa (Homo sapiens, UniProt P05106+P08514); test: IIb/IIIa binding, ELISA or liposome attachment assay (Table I); parameters: Platelet glycoprotein IIb/IIIa was purified from outdated human platelets; from tissue; host or cells: outdated human platelets; conditions: purified receptor
Experimental: Microtiter plates, 96 wells were coated (Type Nunc 1 Maxispor™) with 10 μg/ml purified fibrinogen (100 μl/well), and allowed to stand overnight at 4° C. The plates were washed three times with PBS Tween, 0.137M NaCl, 0.003M KCl, 0.008M Na2 HPO4, pH 7.4 at room temperature, 0.05% Tween-20 and blocked for 1 to 2 hours at room temperature with 200 μl/well TNCNT (which is 0.5% BSA, 20 mM Tris, pH 7.5 at room temperature, 120 mM NaCl, 0.2% NAN3, 2 mM CaCl2, 0.05% Tween 20, [Calbiochem RIA grade or better]) on a plate shaker. The plates were again washed three times with PBS/Tween and 50 μl of sample in TNCNT is added. The mixture was incubated for 15 minutes at room temperature on a plate shaker. The stock solution of purified GPIIb IIIa receptor from human platelets, (0.4-1.0 mg/ml GPIIb IIIa in 0.1% Triton X-100, 1 mM CaCl2, 20 mM Tris, 150 mM NaCl, 0.05% NaN3 in 0.3M N-acetyl glucosamine pH 7.5, stored at -70° C.), was reconstituted in TNCNT. Fifty (50) μl of this diluted GPIIb IIIa was then added to each well and incubated on a plate shaker at room temperature. […] The optical density at 492 nm vs 405 nm was recorded and IC50 values are determined.
as §5

platelets [7] = test: Ex vivo platelet aggregation in the canine coronary thrombosis study; conditions: dog, 10 mg/kg injection
Experimental: For all ex vivo studies (see FIGS. 3A, 3B1, 3B2, 3B3, 3C1 and 3C2), control aggregation values were standardized to the percentages of light transmission observed in PRP and PPP samples (0% and 100%, respectively).
(§3) Animals were randomly assigned to two treatment groups: vehicle control (i.e., normal saline) or RGD peptides at various concentrations. Peptides were administered intra-atrially in both bolus and continuous injections. Each bolus injection consisted of 0.5 to 10 mg/kg and was administered 15 minutes before application of the current. A continuous infusion of the same peptide was then started immediately after completion of this initial injection. Animals received a 25 μg/kg/min to 200 μg/kg/min infusion. The anti-thrombotic effects of the peptides were monitored until 30 minutes after the occurrence of a persistent, occlusive thrombus or five hours after the initiation of electrical stimulation (whichever resulted first). If an occlusive thrombus had not developed within four hours after the initiation of current, the peptide infusion was stopped.
Platelet counts and ex vivo aggregation studies were performed one hour before and 1, 3, and 5 hours after application of anodal direct current.
Platelet aggregation was also determined ex vivo at one, three, and five hours after current application. For these studies, arachidonic acid, or collagen was again used to stimulate the platelets.

coronary thrombosis = test: Electrically induced canine coronary thrombosis, time to full occlusion; type: in vivo; conditions: dog
Experimental: Male mongrel dogs weighing 14 to 20 kg were selected based on proper aggregation of their platelets in response to arachidonic acid, collagen, and adenosine disphosphate (ADP) and based on similar weights and hemodynamic properties.
Before surgery, the animals were anesthetized with sodium pentobarbital (30 mg/kg, i.v.) and then intubated and ventilated on room air with positive pressure using a respirator (Harvard Apparatus, S. Natick, Mass.) at a volume of 30 ml/kg and a frequency of 12 breaths/min. Surgery, performed under aseptic conditions, was begun with the placement of cannulae into the left carotid artery and jugular vein for monitoring arterial blood pressure (Statham P23 pressure transducer, Gould, Inc., Cardiovascular Products, Oxnard, CA) and administering intravenous fluids.
The heart was exposed via a left thoracotomy through the 5th intercostal space. A 2-cm segment of the left circumflex coronary artery (LCCA) was isolated from surrounding tissue by blunt dissection. […] The intra-coronary electrode was constructed by attaching a 25-gauge hypodermic needle tip to a 30-gauge Teflon-insulated silver-coated copper wire. The mechanical occluder was constructed of stainless steel in a C shape with a Teflon screw (2 mm diameter) on top. It was adjusted to control vessel circumference and decrease the reactive hyperemic flow due to a 10-sec (full) occlusion by 50-70% without affecting basal coronary blood flow (FIG. 1C). A monopolar epicardial electrode was sutured to the surface of the ventricle in the region of LCCA distribution to monitor ischemic changes in the electrocardiogram (ECG). The left atrium was cannulated with polythylene tubing for administration of the peptide. Continuous recordings of blood pressure, limb lead II ECG, epicardial electrogram, and mean and phasic LCCA blood flow were obtained on a Model 7 polygraph (Grass Instrument Co., Quincy, Mass.).
One hour after the completion of surgery, a 100 micro-amp continuous anodal direct current delivered from a 9 volt nickel-cadmium battery was applied to the intimal surface of the LCCA. The anode of the battery was in series with a 250,000 ohm potentiometer and the intraluminal coronary artery electrode. The electric circuit was completed by placing the cathode in a subcutaneous site. Electrical stimulation was applied for three hours. At the conclusion of each experiment, the heart was fibrillated electrically and quickly removed, and the LCCA was dissected free as far as possible to verify the position of the implanted anodal electrode.
as §3
Coronary thrombosis was quantified as the time to full occlusion. The effects of the various peptide treatments on coronary thrombosis is illustrated in FIG. 4.

[8] = substitution of Arg at position 4

T1 sequence (P08648 42-894 limits assumed): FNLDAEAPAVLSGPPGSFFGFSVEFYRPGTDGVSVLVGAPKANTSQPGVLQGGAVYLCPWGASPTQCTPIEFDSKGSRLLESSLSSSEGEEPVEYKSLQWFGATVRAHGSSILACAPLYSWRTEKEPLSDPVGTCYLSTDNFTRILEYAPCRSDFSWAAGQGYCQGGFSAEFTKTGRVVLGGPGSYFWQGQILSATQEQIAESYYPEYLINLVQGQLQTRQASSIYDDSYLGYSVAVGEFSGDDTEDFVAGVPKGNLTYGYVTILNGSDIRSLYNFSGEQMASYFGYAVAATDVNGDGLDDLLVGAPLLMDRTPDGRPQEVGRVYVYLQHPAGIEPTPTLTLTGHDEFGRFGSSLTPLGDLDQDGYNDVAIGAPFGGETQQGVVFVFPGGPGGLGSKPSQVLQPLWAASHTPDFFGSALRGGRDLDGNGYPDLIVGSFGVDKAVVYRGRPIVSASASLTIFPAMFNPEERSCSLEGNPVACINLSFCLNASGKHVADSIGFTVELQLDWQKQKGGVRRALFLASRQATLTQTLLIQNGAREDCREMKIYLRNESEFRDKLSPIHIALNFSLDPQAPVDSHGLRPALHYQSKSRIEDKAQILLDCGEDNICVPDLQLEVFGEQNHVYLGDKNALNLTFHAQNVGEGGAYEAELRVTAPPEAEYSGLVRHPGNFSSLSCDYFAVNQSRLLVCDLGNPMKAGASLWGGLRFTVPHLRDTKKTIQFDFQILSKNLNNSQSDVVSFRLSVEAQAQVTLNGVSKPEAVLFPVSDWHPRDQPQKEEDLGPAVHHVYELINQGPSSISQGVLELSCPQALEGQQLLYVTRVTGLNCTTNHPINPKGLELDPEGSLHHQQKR
T1 sequence (P08648 895-1049 partner limits assumed): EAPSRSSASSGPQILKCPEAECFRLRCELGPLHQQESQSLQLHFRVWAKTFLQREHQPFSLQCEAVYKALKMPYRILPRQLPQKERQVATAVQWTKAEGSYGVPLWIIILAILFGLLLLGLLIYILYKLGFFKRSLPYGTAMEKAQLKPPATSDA
T1 sequence (P05556 21-798): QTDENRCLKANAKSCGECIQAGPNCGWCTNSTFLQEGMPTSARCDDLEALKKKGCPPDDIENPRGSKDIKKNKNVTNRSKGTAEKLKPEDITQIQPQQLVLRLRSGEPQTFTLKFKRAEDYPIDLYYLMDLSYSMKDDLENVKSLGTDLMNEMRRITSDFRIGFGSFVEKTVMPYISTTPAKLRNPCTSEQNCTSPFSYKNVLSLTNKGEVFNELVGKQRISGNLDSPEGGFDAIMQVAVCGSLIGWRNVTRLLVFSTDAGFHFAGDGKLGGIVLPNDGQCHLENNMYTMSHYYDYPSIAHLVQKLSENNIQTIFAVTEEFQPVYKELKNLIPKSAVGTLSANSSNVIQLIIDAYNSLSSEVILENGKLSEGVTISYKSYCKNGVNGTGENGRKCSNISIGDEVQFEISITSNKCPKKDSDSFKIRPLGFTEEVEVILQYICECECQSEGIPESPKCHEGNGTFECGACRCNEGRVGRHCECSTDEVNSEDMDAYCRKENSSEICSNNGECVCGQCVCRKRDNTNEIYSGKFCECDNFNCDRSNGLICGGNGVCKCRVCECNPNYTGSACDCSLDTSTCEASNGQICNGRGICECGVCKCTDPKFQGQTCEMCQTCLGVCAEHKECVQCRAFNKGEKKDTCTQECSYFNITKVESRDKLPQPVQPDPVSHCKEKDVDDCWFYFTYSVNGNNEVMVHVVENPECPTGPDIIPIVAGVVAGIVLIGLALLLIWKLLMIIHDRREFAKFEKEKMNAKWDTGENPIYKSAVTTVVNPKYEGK
GP IIb/IIIa, sequence (P08514 32-887 limits assumed): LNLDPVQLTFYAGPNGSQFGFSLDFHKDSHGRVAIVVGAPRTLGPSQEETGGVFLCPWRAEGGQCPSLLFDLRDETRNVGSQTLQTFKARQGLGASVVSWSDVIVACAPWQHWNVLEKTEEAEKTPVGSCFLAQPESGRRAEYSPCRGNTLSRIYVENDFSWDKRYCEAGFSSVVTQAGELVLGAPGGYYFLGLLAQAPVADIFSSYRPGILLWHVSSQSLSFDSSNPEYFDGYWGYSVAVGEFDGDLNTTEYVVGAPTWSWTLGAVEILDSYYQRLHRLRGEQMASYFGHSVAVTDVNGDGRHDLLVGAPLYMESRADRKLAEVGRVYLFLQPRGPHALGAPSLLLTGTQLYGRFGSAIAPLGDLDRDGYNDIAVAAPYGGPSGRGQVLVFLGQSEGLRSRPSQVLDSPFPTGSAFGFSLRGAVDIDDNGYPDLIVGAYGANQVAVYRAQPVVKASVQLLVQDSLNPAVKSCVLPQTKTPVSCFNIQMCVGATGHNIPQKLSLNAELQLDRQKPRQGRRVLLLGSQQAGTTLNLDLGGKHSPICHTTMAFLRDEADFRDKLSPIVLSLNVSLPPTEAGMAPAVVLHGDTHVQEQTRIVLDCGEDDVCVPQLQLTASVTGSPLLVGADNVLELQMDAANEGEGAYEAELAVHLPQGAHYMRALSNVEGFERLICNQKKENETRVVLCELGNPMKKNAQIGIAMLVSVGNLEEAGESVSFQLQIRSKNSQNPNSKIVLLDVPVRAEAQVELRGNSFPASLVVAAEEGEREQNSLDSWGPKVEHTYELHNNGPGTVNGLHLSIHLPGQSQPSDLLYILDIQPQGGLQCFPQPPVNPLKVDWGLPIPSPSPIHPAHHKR
GP IIb/IIIa, sequence (P08514 891-1039 partner limits assumed): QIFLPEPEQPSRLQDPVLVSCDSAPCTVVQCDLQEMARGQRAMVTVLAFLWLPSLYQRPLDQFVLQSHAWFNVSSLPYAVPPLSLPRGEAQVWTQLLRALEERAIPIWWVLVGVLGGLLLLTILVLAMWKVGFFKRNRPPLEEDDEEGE
GP IIb/IIIa, sequence (P05106 27-788): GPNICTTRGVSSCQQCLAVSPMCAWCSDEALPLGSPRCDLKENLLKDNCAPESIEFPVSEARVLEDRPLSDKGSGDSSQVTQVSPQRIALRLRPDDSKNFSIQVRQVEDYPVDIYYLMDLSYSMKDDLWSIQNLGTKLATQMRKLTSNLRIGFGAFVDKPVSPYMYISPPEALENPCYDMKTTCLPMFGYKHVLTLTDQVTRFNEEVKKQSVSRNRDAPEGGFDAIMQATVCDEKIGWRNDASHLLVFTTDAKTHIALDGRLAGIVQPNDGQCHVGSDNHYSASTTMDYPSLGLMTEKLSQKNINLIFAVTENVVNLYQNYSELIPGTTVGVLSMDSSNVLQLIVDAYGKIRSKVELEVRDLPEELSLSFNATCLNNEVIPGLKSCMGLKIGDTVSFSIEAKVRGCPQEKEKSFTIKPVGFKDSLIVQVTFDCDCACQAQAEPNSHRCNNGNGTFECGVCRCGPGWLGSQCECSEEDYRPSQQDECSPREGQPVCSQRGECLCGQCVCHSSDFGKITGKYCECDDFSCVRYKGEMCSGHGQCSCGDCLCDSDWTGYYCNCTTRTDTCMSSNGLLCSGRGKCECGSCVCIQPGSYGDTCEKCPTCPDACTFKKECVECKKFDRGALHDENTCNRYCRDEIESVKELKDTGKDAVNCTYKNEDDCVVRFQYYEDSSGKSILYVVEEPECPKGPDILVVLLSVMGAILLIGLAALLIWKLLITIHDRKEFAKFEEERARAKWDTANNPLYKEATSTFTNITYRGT

“R[Pen]GHRGDTRCR (cysteine pairing not given here)” was tested, and the pIC50 (platelets [1]) was 5.06.
Work on GRGDSP [reference compound] yielded a pIC50 (canine platelets; read-out: concentration inhibiting all three canine platelet aggregation responses by 50%) of roughly 3.89.
With FRGDSPDG the pIC50 [2] was 5.62 and the pIC50 [3] was 7.40.
For Ac-CIPRGD(Y-OMe)RC-NH2 [Peptide 10R], the “increase in platelet aggregation potency relative to analogue 26” value (platelets [4]) was 3-4 fold.
“R[Pen]GRGDSRCA (cysteine pairing not given here)” gave a pIC50 (platelets [1]) of 4.92 and a pIC50 (platelets [5]) of 4.92.
For R2(Pen)GRGDTPCA, the pIC50 (platelets [1]) was 5.09 and the pIC50 (platelets [5]) was 5.57.
“G[Pen]GRGDSFCA (cysteine pairing not given here)” showed a pIC50 (platelets [1]) of 3.94.
Substance L(Pen)GHRGDLRCA has a pIC50 (platelets [1]) of 4.98.
For R(D-Pen)GHRGDLRCR [analogue 4], the “platelet aggregation potency relative to analogue 3” value (platelets [4]) was 2 fold.
“Ac-CNPRGD(O-N-Butyl-Y)RC-NH2 [Ac CNPRGD(O-n-butyl-Tyr)RC--NH2]” was tested, and the pIC50 (platelets [1]) was 7.00.
“Ac- CNPRGD(Y--OMe)(dR)C--NH2 [Peptide 11L]” was tested, and the “platelet aggregation potency compared with analogue 32” value (platelets [4]; [8]) was “decrease in potency”.
For R(Pen)GRGDTPCR, the pIC50 (platelets [1]) was 5.20 and the pIC50 (platelets [5]) was 5.70.
Ac- CNPRGD(Y--OMe)KC--NH2 [Peptide 11R] was tested, and the “inhibitory activity retained relative to analogue 32” value (platelets [4]; [8]) was 20%.
“G[Pen]YRGDSPCA (cysteine pairing not given here)” showed a pIC50 (platelets [1]) of 4.33.
For (Pmp)GRGDTPCA, the pIC50 (platelets [1]) was 4.07.
For (Pmp)GHRGDLRCA, the “platelet aggregation potency relative to analogue 1” value (platelets [4]; more potent than analogue 1) was 2 fold.
Work on G(Pen)GRGDRPCA yielded a pIC50 (platelets [1]) of 4.65.
With G(Pen)FRGDSFCA the pIC50 (platelets [1]) was less than 3.70.
G(Pen)GHRGDTRCA gave a pIC50 (platelets [1]) of 4.95 and a pIC50 (platelets [5]) of 4.77.
G(Pen)LRGDSPCA gave a pIC50 (platelets [1]) of 3.38 and a pIC50 (platelets [5]) of 3.51.
In the case of G(Pen)GRGDTPCA, the pIC50 (platelets [1]) was 4.65 and the pIC50 (platelets [5]) was 4.55.
For “(t-but-am-Pmp)GHRGDLR(Pen)A [(t-but-am-P mp)GHRGDLR(Pen)A]”, the pIC50 (platelets [1]) was 4.05.
With Ac- CNPRGD(Y--OMe)AC--NH2 [Peptide 11K] the “platelet aggregation potency compared with analogue 32” value (platelets [4]; [8]) was “substantial decreases in platelet aggregation potency”, the “ex vivo inhibition of platelet aggregation (%)” value (from here on “ex vivo inhibition … (%)”) (platelets [6]) was greater than 98% and the “ex vivo platelet aggregation” value (platelets [6]) was “inhibited ex vivo platelet aggregation”.
“Ac- CNPRGD(Y--OMe)(Nle)C--NH2 [Peptide 11V]” was tested, and the “ex vivo inhibition … (%)” value (platelets [6]) was greater than 98% and the “ex vivo platelet aggregation” value (platelets [6]) was “inhibited ex vivo platelet aggregation”.
With VRGDSPDG the pIC50 [2] was 7.40, the pIC50 (GP IIb/IIIa) was 6.57 and the pIC50 [3] was 6.62.
For Ac- CNPRGD(Y--OMe)EC--NH2 [Peptide 11J], the “decrease in platelet aggregation potency relative to analogue 32” value (platelets [4]; [8]) was 15 fold, the “ex vivo inhibition … (%)” value (platelets [6]) was greater than 98% and the “ex vivo platelet aggregation” value (platelets [6]) was “inhibited ex vivo platelet aggregation”.
For G(Pen)LRGDTPCA, the pIC50 (platelets [1]) was 4.07.
In the case of R(Pen)GRGDTPCA, the pIC50 (platelets [1]) was 5.15 and the pIC50 (platelets [5]) was 5.51.
With R(Pen)GRGDTPCK the pIC50 (platelets [1]) was 5.12.
Substance G(Pen)LRGDSRCA has a pIC50 (platelets [1]) of 4.39 and a pIC50 (platelets [5]) of 4.31.
In the case of R(Pmc)GHRGDFRCR, the pIC50 (platelets [1]) was 6.21 and the “increase in platelet aggregation potency relative to analogue 5” value (platelets [4]) was roughly 5 fold.
LRGDSPDG showed a pIC50 [3] of 6.70.
Substance “R[Pen]GRGDLRCA (cysteine pairing not given here)” has a pIC50 (platelets [1]) of 4.80 and a pIC50 (platelets [5]) of 4.89.
In the case of R(Pmc)GHRGDVRCR, the pIC50 (platelets [1]) was 6.16 and the “increase in platelet aggregation potency relative to analogue 5” value (platelets [4]) was 4 fold.
YRGDSPDG showed a pIC50 [3] of 7.10.
For Ac- CNPKGD(Y--OMe)RC--NH2 [Peptide 11Q], the “ex vivo inhibition … (%)” value (platelets [6]) was greater than 95% and the “ex vivo platelet aggregation” value (platelets [6]) was “inhibited ex vivo platelet aggregation”.
In the case of R(Pen)GRGDWPCR [Peptide 4R], the pIC50 (canine platelets; read-out: IC50 against canine platelet aggregation) was 5.30 to 5.82, the “ex vivo platelet aggregation by ADP, AA and collagen” value (platelets [7]) was “unresponsive to all modes of stimulation at all time points” and the “coronary thrombosis, occlusion” value (coronary thrombosis; 3 mg/kg) was “ineffective”. For the same substance, the “coronary thrombosis, time to full occlusion” value (coronary thrombosis; 10 mg/kg) was “prevented occlusion throughout the duration of the study” and the pIC50 (platelets [5]) was 6.28.
For R(Pmc)GHRGDLRCR [analogue 5], the “platelet aggregation potency relative to analogue 3” value (platelets [4]) was 3 fold.
In the case of R(Tmc)GHRGDLRCR [analogue 7], the “platelet aggregation potency relative to analogue 3” value (platelets [4]) was 2 fold.
R(orn)GHRGDLRDR showed a pIC50 (platelets [1]) of less than 3.70.
For “Ac- CNPRGD(Y--OMe)(Cit)C--NH2 [Peptide 11S]”, the “platelet aggregation potency compared with analogue 32” value (platelets [4]; [8]) was “substantial decreases in platelet aggregation potency”.
In the case of R(Pmc)GHRGDYRCR, the pIC50 (platelets [1]) was 6.00.
